Reference: article PMC11858597, “Synthesis, Anticancer Screening, and In Silico Evaluations of Thieno[2,3-c]pyridine Derivatives as Hsp90 Inhibitors” (Pharmaceuticals, 2025)

Assays:
RKO = experiment: MTT assay, RKO colorectal cancer cells; type: cell-based; settings: 72 h; for inhibition at 1 µM / inhibition at 10 µM / inhibition at 100 µM: read-out: % cell growth inhibition
From the text: (§1) An MTT assay was used to evaluate the final compounds’ anticancer activity against MCF7 and T47D (breast cancer cells), HSC3 (head and neck cancer cells), and RKO (colorectal cancer cells) cell lines, using cisplatin as a reference standard. Table 1 presents the percentage growth inhibition of all compounds against the various cancer cell lines.
(§2) The cancer cell lines MCF7 and T47D (breast cancer cells), HSC3 (head and neck cancer cells), and RKO (colorectal cancer cells) were kindly provided by Prof. Stephan Feller, Institute of Molecular Medicine, Martin Luther University, Halle, Germany. The human fibroblast (PDL) cell line was obtained as a kind gift from Prof. Khaled Al-Qaoud (Yarmouk University, Irbid, Jordan). All cell lines were cultured in Dulbecco’s Modified Eagle’s Medium (DMEM) supplemented with 10% fetal bovine serum, 100 µg/mL streptomycin, 100 U/mL penicillin, and 1% non-essential amino acid at 37 °C with 5% CO2 in a humidified CO2 incubator. The cell cultures were grown to confluence, and the medium was changed two times weekly.
(§3) The MTT (3-[4,5-dimethylthiazol-2-yl]-2,5-diphenyl tetrazolium bromide) assay was used to investigate cell viability and to calculate the half-maximal inhibitory concentration (IC50) values of the compounds 6(a–k) including standard reference cisplatin. Furthermore, […] stock solutions of the compounds were prepared in DMSO where all compounds were completely soluble. Cells were seeded in 96-well tissue culture plates at a density of 6,000 cells/well for MCF7, T47D, and PDL cells and at a density of 4000 cells/well for RKO and HSC3 cells. After 24 h of seeding, investigated cells were treated with three concentrations (1, 10, and 100 µm) of the compounds for 72 h. At the end of the treatment time, the supernatant medium was aspirated, and 50 µL of fresh DMEM containing MTT (0.5 mg/mL) was added to each well. Cells were then incubated at 37 °C for 2–4 h. After that, the medium was completely removed, and 50 µL of DMSO was added to each well to dissolve the precipitated formazan crystals formed by viable cells. Cell viability, represented by the absorbance of the formazan solution, was measured at 570 nm using the Synergy HTX Multimode Reader (BioTek, Vermont, USA), and cell viability was determined as described in the literature. For each concentration, the relative cell viability was calculated as follows: relative cell viability = (mean treatment absorbance/mean control absorbance) × 100%. Assays were performed in triplicate on three independent experiments. […] IC50 values were then calculated using the four-parameter logistic function in the SigmaPlot software (version 12.5) and presented as the mean ± SD from three independent experiments.

HSC3 = experiment: MTT assay, HSC3 head and neck cancer cells; type: cell-based; settings: for inhibition at 1 µM / inhibition at 10 µM / inhibition at 100 µM: HSC-3, 72 h, read-out: % cell growth inhibition; for inhibition at 1 µM / inhibition at 10 µM / inhibition at 100 µM / % cell growth inhibition: 72 h; for IC50: HSC3, 72 h
From the text: as §1, §2, §3

MCF7 = experiment: MTT assay, MCF7 breast cancer cells; type: cell-based; settings: for IC50: MCF7, 72 h; for inhibition at 1 µM / inhibition at 10 µM / inhibition at 100 µM / % cell growth inhibition: 72 h; for inhibition at 1 µM / inhibition at 10 µM / inhibition at 100 µM: read-out: % cell growth inhibition
From the text: as §1, §2, §3

T47D = experiment: MTT assay, T47D breast cancer cells; type: cell-based; settings: 72 h; for inhibition at 1 µM / inhibition at 10 µM / inhibition at 100 µM: read-out: % cell growth inhibition
From the text: as §1, §2, §3

PDL = experiment: MTT assay, normal fibroblast cell line (PDL); type: cell-based, human; settings: 72 h; for IC50: PDL normal fibroblasts
From the text: To understand the selectivity of compounds, a normal fibroblast cell line (human periodontal ligament-PDL) is also included in this IC50 determination.
as §2, §3

SMILES	inhibition at 1 µM (RKO; Homo sapiens, 1 µM)	inhibition at 10 µM (RKO; Homo sapiens, 10 µM)	inhibition at 100 µM (RKO; Homo sapiens, 100 µM)	inhibition at 1 µM (HSC3; Homo sapiens, HSC3, 1 µM)	inhibition at 10 µM (HSC3; Homo sapiens, HSC3, 10 µM)	inhibition at 100 µM (HSC3; Homo sapiens, HSC3, 100 µM)	inhibition at 1 µM (MCF7; Homo sapiens, MCF7, 1 µM)	inhibition at 10 µM (MCF7; Homo sapiens, MCF7, 10 µM)	inhibition at 100 µM (MCF7; Homo sapiens, MCF7, 100 µM)	inhibition at 1 µM (T47D; Homo sapiens, 1 µM)	inhibition at 10 µM (T47D; Homo sapiens, 10 µM)	inhibition at 100 µM (T47D; Homo sapiens, 100 µM)	also measured
CCOC(=O)c1c(NC(=O)CN2CCCCC2)sc2c1CCN(C(=O)OCC)C2 [6a]	5.71%	53%	93.5%	4.26%	59.8%	92.6%	2.96%	39.5%	91.6%	9.31%	38.6%	88.1%	IC50 (RKO; Homo sapiens): 24.4 ± 7.2 µM; IC50 (HSC3; Homo sapiens, HSC-3): 14.5 ± 4.3 µM; IC50 (MCF7; Homo sapiens): 73.7 ± 4.3 µM; % cell growth inhibition (MCF7; MCF7, 1 µM): weak inhibition; IC50 (T47D; Homo sapiens): 97.2 ± 4.4 µM; IC50 (PDL; Homo sapiens, Fibroblast): > 100 µM; toxicity to normal fibroblast cell lines, PDL (PDL; PDL): no toxicity
CCOC(=O)c1c(NC(=O)CN2CCC(C)CC2)sc2c1CCN(C(=O)OCC)C2 [6b, Diethyl 2-(2-(4-methylpiperidin-1-yl)acetamido)-4,7-dihydrothieno[2,3-c]pyridine-3,6-(5H)-dicarboxylate]	10.7%	39.3%	94.1%	4.06%	38%	79.4%	2.74%	29.7%	83.2%	7.79%	24.4%	82%	
CCOC(=O)c1c(NC(=O)CN2CCNCC2)sc2c1CCN(C(=O)OCC)C2 [6c, Diethyl 2-(2-(piperazin-1-yl)acetamido)-4,7-dihydrothieno[2,3-c]pyridine-3,6(5H)-dicarboxylate]	17.1%	30.9%	93.6%	6.71%	30%	83.4%	0%	22.1%	81%	3.7%	28.1%	80.8%	
CCOC(=O)c1c(NC(=O)CN2CCN(C)CC2)sc2c1CCN(C(=O)OCC)C2 [6d, Diethyl 2-(2-(4-methylpiperazin-1-yl)acetamido)-4,7-dihydrothieno[2,3-c]pyridine-3,6-(5H)-dicarboxylate]	0%	0%	94.4%	0%	0%	83.9%	1.42%	3.7%	79.3%	0%	2.54%	82.1%	
CCOC(=O)c1c(NC(=O)CN2CCN(CC)CC2)sc2c1CCN(C(=O)OCC)C2 [6e, Diethyl 2-(2-(4-ethylpiperazin-1-yl)acetamido)-4,7-dihydrothieno[2,3-c]pyridine-3,6(5H)-dicarboxylate]	6.17%	7.24%	90.1%	3.26%	5.51%	75.8%	4.67%	11.7%	74.2%	5.23%	3.12%	79.4%	
CCOC(=O)c1c(NC(=O)CN2CCN(C(=O)OC(C)(C)C)CC2)sc2c1CCN(C(=O)OCC)C2 [6f, Diethyl 2-(2-(4-(tert-butoxycarbonyl)piperazin-1-yl)acetamido)-4,7-dihydrothieno[2,3-c]-pyridine-3,6(5H)-dicarboxylate]	6.11%	17.2%	47.6%	0%	16.8%	45.8%	7.34%	10%	39%	7.62%	16.2%	34.1%	% cell growth inhibition (MCF7; MCF7, 100 µM): weaker inhibition
CCOC(=O)c1c(NC(=O)CN2CCN(c3ccccc3OC)CC2)sc2c1CCN(C(=O)OCC)C2 [6g, Diethyl 2-(2-(4-(2-methoxyphenyl)piperazin-1-yl)acetamido)-4,7-dihydrothieno[2,3-c]-pyridine-3,6(5H)-dicarboxylate]	0.53%	14.6%	68.4%	0%	15.9%	56.9%	3.4%	6.36%	57.3%	0%	14.2%	59.9%	% cell growth inhibition (MCF7; MCF7, 100 µM): weaker inhibition
CCOC(=O)c1c(NC(=O)CN2CCOCC2)sc2c1CCN(C(=O)OCC)C2 [6h, Diethyl 2-(2-morpholinoacetamido)-4,7-dihydrothieno[2,3-c]pyridine-3,6(5H)-di-carboxylate]	8.76%	19.1%	93.3%	0%	9.88%	77.9%	0%	20.3%	77.2%	0%	17.8%	78.2%	
CCOC(=O)c1c(NC(=O)CN2CCN(C(=O)c3ccco3)CC2)sc2c1CCN(C(=O)OCC)C2 [6j, Diethyl 2-(2-(4-(furan-2-carbonyl)piperazin-1-yl)acetamido)-4,7-dihydrothieno[2,3-c]-pyridine-3,6(5H)-dicarboxylate]	0%	17.3%	96.8%	0%	29.9%	86.4%	0%	16.2%	76.5%	0%	1.19%	76%	
CCOC(=O)c1c(NC(=O)CN2CCN(c3ncccn3)CC2)sc2c1CCN(C(=O)OCC)C2 [6k, Diethyl 2-(2-(4-(pyrimidin-2-yl)piperazin-1-yl)acetamido)-4,7-dihydrothieno[2,3-c]-pyridine-3,6(5H)-dicarboxylate]	0%	22.2%	96.1%	0%	11.3%	86.2%	0%	12.2%	80%	0%	10.1%	76.5%	
N.N.[Cl][Pt][Cl] [Cisplatin, reference compound]													% cell growth inhibition (RKO; 1 µM): 46.06%; % cell growth inhibition (RKO; 10 µM): 92.77%; % cell growth inhibition (RKO; 100 µM): 95.04%; IC50 (RKO): 1.7 ± 0.4 µM; % cell growth inhibition (HSC3; HSC3, 1 µM): 29.33%; % cell growth inhibition (HSC3; HSC3, 10 µM): 84.74%; % cell growth inhibition (HSC3; HSC3, 100 µM): 97.87%; IC50 (HSC3): 2.7 ± 0.2 µM; % cell growth inhibition (MCF7; MCF7, 1 µM): 11.23%; % cell growth inhibition (MCF7; MCF7, 10 µM): 57.32%; % cell growth inhibition (MCF7; MCF7, 100 µM): 97.41%; IC50 (MCF7): 5.8 ± 0.9 µM; % cell growth inhibition (T47D; 1 µM): 29.09%; % cell growth inhibition (T47D; 10 µM): 89.65%; % cell growth inhibition (T47D; 100 µM): 98.20%; IC50 (T47D): 2.6 ± 0.6 µM; IC50 (PDL): 15.5 ± 2.1 µM
